Numbers after ± are expanded uncertainties.
Tests used:
[1] = refractive index (Na D-line) (dimensionless); details: 293.15 K; 101.33 kPa; Liquid; Standard Abbe refractometry
[2] = Liquid; for mass density: 293.15 K, 101.33 kPa, Pycnometric method; for Normal boiling temperature: Fischer Boiling Apparatus

Row | refractive index [1] | mass density [2] | Normal boiling temperature [2] | SMILES
1 | 1.4402 ± 0.0005 | 829.2 ± 0.74 kg/m3 | 245.1 ± 1 °C | CCCCCCCCCCCO [1-undecanol]
2 | 1.371 ± 0.0004 | 1044.3 ± 0.47 kg/m3 | 117.80 ± 1 °C | CC(=O)O [acetic acid]
3 | 1.3721 ± 0.0005 | 1218.5 ± 1.5 kg/m3 | 101.1 ± 1 °C | O=CO [formic acid]
4 | 1.4088 ± 0.0004 | 932.5 ± 0.4 kg/m3 | 186.00 ± 1 °C | CCCCC(=O)O [pentanoic acid]
5 | 1.3808 ± 0.0004 | 988.1 ± 0.43 kg/m3 | 141.1 ± 1 °C | CCC(=O)O [propanoic acid]
6 | 1.3324 ± 0.0003 | 999.9 ± 0.26 kg/m3 | 100.1 ± 1 °C | O [water]

— the NIST ThermoML archive (doi:10.1016/j.fluid.2012.06.020)
